ChEMBL document CHEMBL5584245, “Structure-activity relationship of dual inhibitors containing maleimide and imidazole motifs against glutaminyl cyclase and glycogen synthase kinase-3β” (Bioorg Med Chem Lett, 2024)

Assays:
[1] = molecular target: Glutaminyl-peptide cyclotransferase (Homo sapiens, UniProt Q16769); assay: Inhibition of glutaminyl cyclase (unknown origin)
[2] = molecular target: Glycogen synthase kinase-3 beta (Homo sapiens, UniProt P49841); assay: Inhibition of GSK-3beta (unknown origin)
Chain of Glycogen synthase kinase-3 beta (P49841 whole entry): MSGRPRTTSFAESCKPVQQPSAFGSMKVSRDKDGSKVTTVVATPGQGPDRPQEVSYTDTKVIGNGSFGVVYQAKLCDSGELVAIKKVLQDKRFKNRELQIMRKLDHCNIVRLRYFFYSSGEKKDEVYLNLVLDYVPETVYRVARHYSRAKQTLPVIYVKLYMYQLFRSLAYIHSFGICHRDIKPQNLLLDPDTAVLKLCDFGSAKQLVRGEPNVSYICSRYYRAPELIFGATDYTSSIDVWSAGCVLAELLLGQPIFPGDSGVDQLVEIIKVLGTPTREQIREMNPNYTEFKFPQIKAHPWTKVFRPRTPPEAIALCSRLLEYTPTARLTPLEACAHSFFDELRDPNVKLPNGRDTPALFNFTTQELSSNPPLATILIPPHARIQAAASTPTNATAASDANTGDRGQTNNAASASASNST

Chain of Glutaminyl-peptide cyclotransferase (Q16769 whole entry): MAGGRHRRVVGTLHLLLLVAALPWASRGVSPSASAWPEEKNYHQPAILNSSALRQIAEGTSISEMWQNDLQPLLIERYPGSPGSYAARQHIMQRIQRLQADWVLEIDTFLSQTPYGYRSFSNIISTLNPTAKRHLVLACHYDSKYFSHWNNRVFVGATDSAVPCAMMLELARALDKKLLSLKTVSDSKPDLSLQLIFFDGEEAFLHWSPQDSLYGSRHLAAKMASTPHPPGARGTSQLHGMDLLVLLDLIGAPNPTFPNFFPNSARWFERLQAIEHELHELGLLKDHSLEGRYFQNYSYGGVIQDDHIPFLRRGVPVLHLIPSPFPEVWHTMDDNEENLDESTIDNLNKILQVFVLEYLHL

| Compound | IC50 [1] [µM] | IC50 [2] [nM] |
| --- | --- | --- |
| Cc1cccc(C2=C(c3cn(CCCn4cncc4C)c4ccccc34)C(=O)NC2=O)c1 | 6.23 | 103 |
| Cc1ccccc1C1=C(c2cn(CCCn3cncc3C)c3ccccc23)C(=O)NC1=O | 1.76 | 59 |
| COc1ccc(C2=C(c3cn(CCCn4cncc4C)c4ccccc34)C(=O)NC2=O)cc1OC | 4.59 | 36 |
| Cc1cncn1CCCn1cc(C2=C(c3ccc(OCCCN4CCCCC4)cc3)C(=O)NC2=O)c2ccccc21 | 1.12 | 87 |
| COc1cc(C2=C(c3cn(CCCn4cncc4C)c4ccccc34)C(=O)NC2=O)ccc1OCCCN1CCCCC1 | 1.13 | 51 |
| Cc1cncn1CCCn1cc(C2=C(c3ccc(OCCCCN4CCN(C)CC4)cc3)C(=O)NC2=O)c2ccccc21 | 3.24 | 15 |
| COc1cccc(C2=C(c3cn(CCCn4cncc4C)c4ccccc34)C(=O)NC2=O)c1 | 6.32 | 55 |
| COc1ccccc1C1=C(c2cn(CCCn3cncc3C)c3ccccc23)C(=O)NC1=O | 1.71 | 23 |
| COc1cc(C2=C(c3cn(CCCn4cncc4C)c4ccccc34)C(=O)NC2=O)ccc1OCCCCN1CCOCC1 | 13 | 59 |
| Cc1cncn1CCCn1cc(C2=C(c3ccc(OCCCN4CCN(C)CC4)cc3)C(=O)NC2=O)c2ccccc21 | 1.3 | 74 |
| Cc1cncn1CCCn1cc(C2=C(c3cccc(F)c3)C(=O)NC2=O)c2ccccc21 | 10.8 | 64 |
| Cc1cncn1CCCn1cc(C2=C(c3cc(F)c(F)cc3F)C(=O)NC2=O)c2ccccc21 | 2.6 | 122 |
| Cc1cncn1CCCn1cc(C2=C(c3ccccc3F)C(=O)NC2=O)c2ccccc21 | 2.76 | 29 |
| COc1cc(C2=C(c3cn(CCCn4cncc4C)c4ccccc34)C(=O)NC2=O)ccc1OCCCCN1CCCCC1 | 0.83 | 64 |
| Cc1cncn1CCCn1cc(C2=C(c3cccc([N+](=O)[O-])c3)C(=O)NC2=O)c2ccccc21 | 6.13 | 47 |
| Cc1cncn1CCCn1cc(C2=C(c3ccc(OCCCCN4CCCCC4)cc3)C(=O)NC2=O)c2ccccc21 | 2.2 | 68 |
| COc1cc(C2=C(c3cn(CCCn4cncc4C)c4ccccc34)C(=O)NC2=O)ccc1OCCCN1CCOCC1 | 7.02 | 89 |
| Cc1cncn1CCCn1cc(C2=C(c3ccc(OCCCCN4CCCC4)cc3)C(=O)NC2=O)c2ccccc21 | 1.08 | 93 |
| Cc1cncn1CCCn1cc(C2=C(c3ccc(OCCCCN4CCOCC4)cc3)C(=O)NC2=O)c2ccccc21 | 2.21 | 57 |
| Cc1cncn1CCCn1cc(C2=C(c3ccc([N+](=O)[O-])cc3)C(=O)NC2=O)c2ccccc21 | 1.89 | 161 |
| Cc1cncn1CCCn1cc(C2=C(c3ccc(F)cc3)C(=O)NC2=O)c2ccccc21 | 3.22 | 102 |
| Cc1cncn1CCCn1cc(C2=C(c3ccc(OCCCN4CCOCC4)cc3)C(=O)NC2=O)c2ccccc21 | 1.51 | 178 |
| Cc1cncn1CCCn1cc(C2=C(c3ccccc3[N+](=O)[O-])C(=O)NC2=O)c2ccccc21 | 1.22 | 2 |

The remaining lines, values ahead:

| IC50 [1] [µM] | IC50 [2] [nM] | Compound |
| --- | --- | --- |
| 3.92 | 162 | Cc1cncn1CCCn1cc(C2=C(c3ccc(OCCCN4CCCC4)cc3)C(=O)NC2=O)c2ccccc21 |
| 9.55 | 197 | Cc1cncn1CCCn1cc(C2=C(c3ccc(OCCCN4CCN(c5ccccc5)CC4)cc3)C(=O)NC2=O)c2ccccc21 |
| 6.99 | 192 | Cc1cncn1CCCn1cc(C2=C(c3ccc(OCCCCc4ccccc4)cc3)C(=O)NC2=O)c2ccccc21 |
| 11.2 | 133 | Cc1cncn1CCCn1cc(C2=C(c3ccc(OCCCCn4ccnc4)cc3)C(=O)NC2=O)c2ccccc21 |
| 15 | 104 | Cc1cncn1CCCn1cc(C2=C(c3ccc(OCCCn4ccnc4)cc3)C(=O)NC2=O)c2ccccc21 |
| 18.1 | 177 | COc1cc(C2=C(c3cn(CCCn4cncc4C)c4ccccc34)C(=O)NC2=O)ccc1OCCCc1ccccc1 |
| 7.97 | 182 | Cc1cncn1CCCn1cc(C2=C(c3ccc(OCCCc4ccccc4)cc3)C(=O)NC2=O)c2ccccc21 |
| 2.3 | 14 | Cc1cncn1CCCn1cc(C2=C(c3ccccc3)C(=O)NC2=O)c2ccccc21 |
| 7.63 | 200 | Cc1cncn1CCCn1cc(C2=C(c3ccc(OCCCCN4CCN(c5ccccc5)CC4)cc3)C(=O)NC2=O)c2ccccc21 |
| 26.2 | 91 | COc1cc(C2=C(c3cn(CCCn4cncc4C)c4ccccc34)C(=O)NC2=O)ccc1OCCCCc1ccccc1 |
| 20 | 150 | CCCOc1ccc(C2=C(c3cn(CCCn4cncc4C)c4ccccc34)C(=O)NC2=O)cc1 |
| 10.2 | 53 | CCCCOc1ccc(C2=C(c3cn(CCCn4cncc4C)c4ccccc34)C(=O)NC2=O)cc1 |
